Laboratory results as given in PubChem BioAssay (NCI).
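How tested: cells in 96-well plates exposed to compound for 48 hours at five concentrations. Here, GI50 denotes the concentration required for 50% inhibition of growth. TGI denotes the concentration required for complete inhibition of growth.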

Key:
Experiment in all cases: growth of human tumour cells (NCI), 48 h
SF-295 CNS = tested on: SF-295 CNS
NCI-H23 lung = tested on: NCI-H23 lung
A549 NSCLC = tested on: A549 NSCLC
PC-3 prostate = tested on: PC-3 prostate
SW-620 colon = tested on: SW-620 colon
UO-31 renal = tested on: UO-31 renal
HCT-116 colon = tested on: HCT-116 colon
IGROV1 ovarian = tested on: IGROV1 ovarian
A498 renal = tested on: A498 renal
KM12 colon = tested on: KM12 colon

Cn1cc(C2=C(c3cccc([N+](=O)[O-])c3)C(=O)NC2=O)c2ccccc21
GI50 (SF-295 CNS): 2.14 µM
TGI (SF-295 CNS): > 14 µM
GI50 (NCI-H23 lung): 6.66 µM
TGI (NCI-H23 lung): > 25 µM
GI50 (A549 NSCLC): 8.52 µM
TGI (A549 NSCLC): > 25 µM
GI50 (PC-3 prostate): 5.61 µM
TGI (PC-3 prostate): > 25 µM
GI50 (SW-620 colon): 11.4 µM
TGI (SW-620 colon): > 25 µM
GI50 (UO-31 renal): 6.46 µM
TGI (UO-31 renal): > 25 µM
GI50 (HCT-116 colon): 5.5 µM
TGI (HCT-116 colon): > 25 µM
GI50 (IGROV1 ovarian): 9.98 µM
TGI (IGROV1 ovarian): 24.2 µM
GI50 (A498 renal): 0.539 µM
TGI (A498 renal): 1.81 µM
GI50 (KM12 colon): 5.05 µM
TGI (KM12 colon): 12.9 µM

O=C(/C=C/c1ccccn1)c1ccccc1
GI50 (SF-295 CNS): 15.7 µM
TGI (SF-295 CNS): 32.2 µM
GI50 (NCI-H23 lung): 16.3 µM
TGI (NCI-H23 lung): 34.8 µM
GI50 (A549 NSCLC): 14.4 µM
TGI (A549 NSCLC): 29.4 µM
GI50 (PC-3 prostate): 4.22 µM
TGI (PC-3 prostate): 17 µM
GI50 (SW-620 colon): 2.02 µM
TGI (SW-620 colon): 4.1 µM
GI50 (UO-31 renal): 12.2 µM
TGI (UO-31 renal): 29.9 µM
GI50 (HCT-116 colon): 1.49 µM
TGI (HCT-116 colon): 3.77 µM
GI50 (IGROV1 ovarian): 3.84 µM
TGI (IGROV1 ovarian): 85.3 µM
GI50 (A498 renal): 14.9 µM
TGI (A498 renal): 28.3 µM
GI50 (KM12 colon): 4.13 µM
TGI (KM12 colon): 15.5 µM

O=[N+]([O-])/C(=C/C=C/c1ccccc1)c1ccccc1
GI50 (SF-295 CNS): 2.56 µM
TGI (SF-295 CNS): 9.08 µM
GI50 (NCI-H23 lung): 2.25 µM
TGI (NCI-H23 lung): 6.16 µM
GI50 (A549 NSCLC): 2.41 µM
TGI (A549 NSCLC): 6.79 µM
GI50 (PC-3 prostate): 1.88 µM
TGI (PC-3 prostate): 4.29 µM
GI50 (SW-620 colon): 1.79 µM
TGI (SW-620 colon): 3.67 µM
GI50 (UO-31 renal): 1.46 µM
TGI (UO-31 renal): 3.19 µM
GI50 (HCT-116 colon): 1.88 µM
TGI (HCT-116 colon): 3.62 µM
GI50 (IGROV1 ovarian): 1.92 µM
TGI (IGROV1 ovarian): 4.54 µM
GI50 (A498 renal): 3.78 µM
TGI (A498 renal): 9.66 µM
GI50 (KM12 colon): 2.04 µM
TGI (KM12 colon): 4.29 µM

CC(C)(C)OC(=O)CC(S(=O)(=O)c1ccccc1)S(=O)(=O)c1ccccc1
GI50 (SF-295 CNS): > 100 µM
TGI (SF-295 CNS): > 100 µM
GI50 (NCI-H23 lung): 14.6 µM
TGI (NCI-H23 lung): 32.1 µM
GI50 (A549 NSCLC): 18.3 µM
TGI (A549 NSCLC): 38.9 µM
GI50 (PC-3 prostate): 15.1 µM
TGI (PC-3 prostate): 29.7 µM
GI50 (SW-620 colon): 1.64 µM
TGI (SW-620 colon): 3.17 µM
GI50 (UO-31 renal): 2.9 µM
TGI (UO-31 renal): 10.4 µM
GI50 (HCT-116 colon): 1.46 µM
TGI (HCT-116 colon): 2.78 µM
GI50 (IGROV1 ovarian): 18.5 µM
TGI (IGROV1 ovarian): 38.5 µM
GI50 (A498 renal): 13.2 µM
TGI (A498 renal): 26.4 µM

COc1ccc(N=C2C(=O)Nc3ccc(Br)cc32)cc1
TGI (SF-295 CNS): > 100 µM
TGI (NCI-H23 lung): 45 µM
TGI (A549 NSCLC): > 100 µM
TGI (PC-3 prostate): > 100 µM
TGI (SW-620 colon): 63.8 µM
TGI (UO-31 renal): 26.5 µM
TGI (HCT-116 colon): 35.2 µM
TGI (A498 renal): > 100 µM
TGI (KM12 colon): 29.4 µM

Cc1nc2sc(C(=O)Nc3cccc(Cl)c3)c(N)c2cc1C(O)c1ccccc1 (configuration not stated)
GI50 (SF-295 CNS): 1.21 µM
TGI (SF-295 CNS): 13.5 µM
GI50 (NCI-H23 lung): 1.4 µM
TGI (NCI-H23 lung): 19.4 µM
GI50 (A549 NSCLC): 1.59 µM
TGI (A549 NSCLC): 38.8 µM
GI50 (PC-3 prostate): 2.78 µM
TGI (PC-3 prostate): 25.1 µM
GI50 (SW-620 colon): 0.351 µM
TGI (SW-620 colon): 19.7 µM
GI50 (UO-31 renal): 2.37 µM
TGI (UO-31 renal): 15.6 µM
GI50 (HCT-116 colon): 0.426 µM
TGI (HCT-116 colon): > 100 µM
GI50 (IGROV1 ovarian): 2.27 µM
TGI (IGROV1 ovarian): 17 µM
GI50 (A498 renal): 0.181 µM
TGI (A498 renal): 0.815 µM
GI50 (KM12 colon): 0.577 µM
TGI (KM12 colon): 24.5 µM

CCCC/C=C1/CCC(CN(C)C)C1=O (configuration not stated)
TGI (SF-295 CNS): 13 µM
TGI (NCI-H23 lung): 8.18 µM
TGI (A549 NSCLC): 16.5 µM
TGI (PC-3 prostate): 27.2 µM
TGI (SW-620 colon): 2.88 µM
TGI (UO-31 renal): 5.97 µM
TGI (HCT-116 colon): 4.01 µM
TGI (IGROV1 ovarian): 10.1 µM
TGI (A498 renal): 15.9 µM
TGI (KM12 colon): 2.31 µM

COc1ccc([C@H]2c3[nH]c4ccccc4c3C[C@H]3C(=O)N(CCCCCCC(=O)NO)CC(=O)N23)cc1
GI50 (SF-295 CNS): 1.91 µM
TGI (SF-295 CNS): 12.4 µM
GI50 (NCI-H23 lung): 1.96 µM
TGI (NCI-H23 lung): 28.7 µM
GI50 (A549 NSCLC): 5.28 µM
TGI (A549 NSCLC): > 33.3 µM
GI50 (PC-3 prostate): 2.42 µM
TGI (PC-3 prostate): > 33.3 µM
GI50 (SW-620 colon): 1.03 µM
TGI (SW-620 colon): > 33.3 µM
GI50 (UO-31 renal): 1.47 µM
TGI (UO-31 renal): > 33.3 µM
GI50 (HCT-116 colon): 1.07 µM
TGI (HCT-116 colon): > 33.3 µM
GI50 (IGROV1 ovarian): 2.32 µM
TGI (IGROV1 ovarian): > 33.3 µM
GI50 (A498 renal): 2.91 µM
TGI (A498 renal): 9.55 µM
GI50 (KM12 colon): 2.73 µM
TGI (KM12 colon): > 33.3 µM

COc1cc(C(=O)Nc2ccc(-c3nc4ccccc4[nH]3)cc2)cc(OC)c1OC
GI50 (SF-295 CNS): 10.7 µM
TGI (SF-295 CNS): 25.5 µM
GI50 (NCI-H23 lung): 11.9 µM
TGI (NCI-H23 lung): 34.6 µM
GI50 (A549 NSCLC): 11.2 µM
TGI (A549 NSCLC): 27.8 µM
GI50 (PC-3 prostate): 13.6 µM
TGI (PC-3 prostate): 34 µM
GI50 (SW-620 colon): 16.9 µM
TGI (SW-620 colon): 42.8 µM
GI50 (UO-31 renal): 3.92 µM
TGI (UO-31 renal): 16.1 µM
GI50 (HCT-116 colon): 10.7 µM
TGI (HCT-116 colon): 25.3 µM
GI50 (IGROV1 ovarian): 14.1 µM
TGI (IGROV1 ovarian): 31.5 µM
GI50 (A498 renal): 7.07 µM
TGI (A498 renal): 25.4 µM
GI50 (KM12 colon): 9.22 µM
TGI (KM12 colon): 32.5 µM

COC(=O)c1sc(=S)c2sc(C(=O)OC)c(C(=O)OC)c2c1C(=O)OC
GI50 (SF-295 CNS): 39.3 µM
TGI (SF-295 CNS): > 100 µM
GI50 (NCI-H23 lung): 44.8 µM
TGI (NCI-H23 lung): > 100 µM
GI50 (A549 NSCLC): 51.2 µM
TGI (A549 NSCLC): > 100 µM
GI50 (PC-3 prostate): 37.2 µM
TGI (PC-3 prostate): > 100 µM
GI50 (SW-620 colon): 74.8 µM
TGI (SW-620 colon): > 100 µM
GI50 (UO-31 renal): 68.5 µM
TGI (UO-31 renal): > 100 µM
GI50 (HCT-116 colon): 45 µM
TGI (HCT-116 colon): > 100 µM
GI50 (IGROV1 ovarian): 37.1 µM
TGI (IGROV1 ovarian): > 100 µM
GI50 (A498 renal): 22.2 µM
TGI (A498 renal): 52.1 µM
GI50 (KM12 colon): 36.4 µM
TGI (KM12 colon): > 100 µM

O=C(NCCNC1=CC(=O)c2nc3ccccc3c3ccnc1c23)c1cnccn1
GI50 (SF-295 CNS): 18.9 µM
TGI (SF-295 CNS): > 100 µM
GI50 (NCI-H23 lung): 46.4 µM
TGI (NCI-H23 lung): > 100 µM
GI50 (A549 NSCLC): 36.3 µM
TGI (A549 NSCLC): > 100 µM
GI50 (PC-3 prostate): 13.1 µM
TGI (PC-3 prostate): > 100 µM
GI50 (SW-620 colon): 24.2 µM
TGI (SW-620 colon): > 100 µM
GI50 (UO-31 renal): 62.4 µM
TGI (UO-31 renal): > 100 µM
GI50 (HCT-116 colon): 19.8 µM
TGI (HCT-116 colon): > 100 µM
GI50 (IGROV1 ovarian): 45.2 µM
TGI (IGROV1 ovarian): > 100 µM
GI50 (A498 renal): > 100 µM
TGI (A498 renal): > 100 µM
GI50 (KM12 colon): 11.2 µM
TGI (KM12 colon): 63.4 µM

COc1cc(/C=C/C(=O)/C=C/c2ccc(-n3ccnc3)cc2)ccc1O
GI50 (SF-295 CNS): 14 µM
TGI (SF-295 CNS): 33 µM
GI50 (NCI-H23 lung): 2.07 µM
TGI (NCI-H23 lung): 5.04 µM
GI50 (A549 NSCLC): 3.19 µM
TGI (A549 NSCLC): 15.6 µM
GI50 (PC-3 prostate): 2.19 µM
TGI (PC-3 prostate): 5.4 µM
GI50 (SW-620 colon): 2.34 µM
TGI (SW-620 colon): 5.78 µM
GI50 (UO-31 renal): 1.51 µM
TGI (UO-31 renal): 3.15 µM
GI50 (HCT-116 colon): 1.45 µM
TGI (HCT-116 colon): 2.93 µM
GI50 (A498 renal): 7.22 µM
TGI (A498 renal): 19.9 µM
GI50 (KM12 colon): 2.11 µM
TGI (KM12 colon): 4.59 µM

CSc1ccc2c(c1)N(CCCN(C)C)c1ccccc1S2
TGI (SF-295 CNS): 26.8 µM
TGI (NCI-H23 lung): 31.5 µM
TGI (A549 NSCLC): 30.2 µM
TGI (PC-3 prostate): 23.8 µM
TGI (SW-620 colon): 41.8 µM
TGI (HCT-116 colon): 26.9 µM
TGI (IGROV1 ovarian): 28 µM
TGI (A498 renal): 24.6 µM
TGI (KM12 colon): 24.9 µM

c1ccc(-c2nc3ccccc3[nH]2)c(OCCCCCOc2ccccc2-c2nc3ccccc3[nH]2)c1
GI50 (SF-295 CNS): 15.3 µM
TGI (SF-295 CNS): 41.2 µM
GI50 (NCI-H23 lung): 13.1 µM
TGI (NCI-H23 lung): 45.4 µM
GI50 (PC-3 prostate): 7.64 µM
TGI (PC-3 prostate): 96.8 µM
GI50 (SW-620 colon): 3.18 µM
TGI (SW-620 colon): 12.9 µM
GI50 (UO-31 renal): 11 µM
TGI (UO-31 renal): 36 µM
GI50 (HCT-116 colon): 1.64 µM
TGI (HCT-116 colon): 3.24 µM
GI50 (IGROV1 ovarian): 18.1 µM
TGI (IGROV1 ovarian): 47.1 µM
GI50 (A498 renal): 12.1 µM
TGI (A498 renal): 25.5 µM
GI50 (KM12 colon): 15.8 µM
TGI (KM12 colon): 72.4 µM
